Each structure is given as a SMILES string. Activity calls are given as the source filed them.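 The calls were made as follows: active = half-maximal concentration for changing protein binding to DNA, from the fitted dose curve, below 10 micromolar; inactive = the rest.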

In this assay the target is Nuclear receptor subfamily 1 group D member 1 (Homo sapiens) (UniProt P20393). In words: modulators of Rev-erb alpha DNA binding, dose response, biochemical, FITC-DNA, fluorescence polarization (AID 1259321).
Sequence of Nuclear receptor subfamily 1 group D member 1 (Homo sapiens) (P20393 whole entry, looked up): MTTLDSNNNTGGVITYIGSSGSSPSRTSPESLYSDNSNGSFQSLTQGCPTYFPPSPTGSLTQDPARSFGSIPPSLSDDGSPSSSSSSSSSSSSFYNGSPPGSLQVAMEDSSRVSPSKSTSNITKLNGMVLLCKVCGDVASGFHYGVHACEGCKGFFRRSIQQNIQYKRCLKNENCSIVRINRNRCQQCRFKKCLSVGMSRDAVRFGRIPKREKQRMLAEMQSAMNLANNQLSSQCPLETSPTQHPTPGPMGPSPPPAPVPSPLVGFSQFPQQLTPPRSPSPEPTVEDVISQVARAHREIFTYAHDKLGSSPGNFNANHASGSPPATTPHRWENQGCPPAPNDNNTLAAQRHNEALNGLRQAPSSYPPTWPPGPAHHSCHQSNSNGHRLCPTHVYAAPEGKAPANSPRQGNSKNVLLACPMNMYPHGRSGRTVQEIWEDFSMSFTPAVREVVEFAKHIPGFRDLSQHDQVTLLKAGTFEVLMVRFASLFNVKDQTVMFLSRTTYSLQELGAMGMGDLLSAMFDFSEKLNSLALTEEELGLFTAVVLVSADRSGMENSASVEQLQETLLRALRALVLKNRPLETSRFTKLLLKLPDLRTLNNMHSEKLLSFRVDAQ

For the compound `COc1cc(C(=O)Nc2nnc(-c3sccc3C)s2)cc(OC)c1OC`, the IC50 is 4.24 µM.

As to `CNc1ccc2c3c(cccc13)C(=O)N(C)C2=O`, the IC50 is 4.6 µM.

For `COc1cc(/C=C(\C#N)c2nc3ccccc3o2)ccc1O`, the IC50 was 2.91 µM.

As to `CCn1cc(C2N3CC4(C)CN2CC(C)(C3)C4=O)c2ccccc21` (configuration not stated), the concentration for half-maximal inhibition (IC50) was 2.83 µM.

Consider `CN1C(=O)c2ccc(C(=O)Nc3ccc(Br)cn3)cc2C1=O`, for which the IC50 was > 40 µM (inactive).

With `Cc1ccc(NC(=O)c2sc(Cl)nc2-c2ccccc2)cc1C`, the IC50 result was “inactive”.

Regarding `COc1ccccc1N(C)S(=O)(=O)c1ccc(C(=O)Nc2nc(C)c(C(C)=O)s2)cc1`, the IC50 result is “inactive”.

For `CSc1nnc(N2C(=O)C(O)=C(C(=O)c3ccco3)C2c2cccc(Cl)c2)s1` (configuration not stated), the IC50 entry was “inactive”.

As for `Cn1nnnc1-c1cc(Br)ccc1NC(=O)c1ccccc1`, the IC50 result was “inactive”.

Take `C=CCNC(=O)c1ccc(-c2nc(-c3ccc(Cl)cc3Cl)cs2)cc1`: the IC50 was 4.59 µM.

With `CCOC(=O)c1c(NC(=O)COC(=O)CCOc2ccccc2C)sc(C(=O)NC)c1C`, the IC50 is 0.831 µM.

For the compound `COc1ccc2nc(SC)c(C#N)cc2c1`, the IC50 result was “inactive”.

As for `CCOC(=O)c1cc(C(=O)OCC)c2cc(Br)ccc2n1`, the IC50 entry was “inactive”.

`Cc1cc(-c2nnc3sc(-c4ccc(Cl)cc4Cl)nn23)n[nH]1`: the IC50 was > 40 µM (inactive).

For `NS(=O)(=O)c1ccc(CNC(=O)c2cc(-c3cccnc3)nc3ccc(Br)cc23)cc1`, the IC50 was 0.496 µM.

Turning to `CN1C(=O)/C(=C\c2ccc(N3CCCCC3)o2)C(=O)NC1=S`, the IC50 is 3.49 µM.

For the compound `O=C(CSc1nc2ccccc2nc1N1CCCCC1)NCc1ccc(Cl)cc1Cl`, the IC50 is 7.15 µM.

Consider `Cc1sc2nc(Cc3ccccc3)[nH]c(=O)c2c1-c1ccccc1`, for which the IC50 was > 40 µM (inactive).

As to `COc1ccc(Cl)cc1NC(=O)c1[nH]c(C)c(C(C)=O)c1C`, the IC50 is 6.1 µM.

For the compound `c1ccc(N(c2ccccc2)c2nc(N3CCCC3)nc(-n3ccnc3)n2)cc1`, the IC50 was 1.14 µM.

`Cc1ccc(-c2nc3ccccc3s2)cc1NC(=O)c1cc(-n2cnnc2)ccc1Cl`: the IC50 entry is “inactive”.

With `Cc1cc(C)cc(N2CC(O)=C(c3nc4ccccc4c(=O)[nH]3)C2=N)c1`, the 50% inhibitory concentration (IC50) is 2.99 µM.

Turning to `N#Cc1ccsc1NC(=O)COC(=O)c1cc(Br)ccc1O`, the IC50 result is “inactive”.

Take `Cc1cccc(N2CCN(c3ccc4cc(S(=O)(=O)N5CCCCC5)ccc4n3)CC2)c1C`: the IC50 is > 40 µM (inactive).

Turning to `O=C(Cc1ccc(Cl)cc1)c1c[nH]c(C(=O)NCc2cccnc2)c1`, the IC50 was 2.51 µM.

For `O=S(=O)(N1CCCCC1)N1CCN(CC(O)COc2ccc3cc(Br)ccc3c2)CC1` (configuration not stated), the IC50 was > 40 µM (inactive).

`O=C(OCC(=O)N1CCN(S(=O)(=O)c2ccc(Cl)cc2)CC1)c1cc(Br)ccc1O`: the IC50 was 2.22 µM.

For the compound `Cc1ccc2nc(SCC(=O)Nc3ccc4sc(C)nc4c3)c(C#N)cc2c1`, the IC50 is > 40 µM (inactive).

In the case of `COc1ccc(-c2nn(C)c(=O)c3ccccc23)cc1NC(=O)COc1ccccc1`, the IC50 is 7.9 µM.

On to `COc1ccc2nc(SCC(=O)Nc3ccc(S(=O)(=O)N4CCCC4)cc3)c(C#N)cc2c1`, for which the IC50 result was “inactive”.

Turning to `C[n+]1ccc(/C=C/c2c[nH]c3ccc(F)cc23)cc1`, the IC50 was > 40 µM (inactive).

Consider `O=c1sc(N2CCN(c3ccc(F)cc3)CC2)nc2ccsc12`, for which the IC50 entry was “inactive”.

For the compound `O=C(CSc1nnc2scc(-c3ccccc3)n12)Nc1nsc(-c2ccccc2)n1`, the IC50 was > 40 µM (inactive).

Take `Cc1sc2nc(N3CCOCC3)[nH]c(=O)c2c1-c1ccccc1`: the IC50 was 7.66 µM.

Consider `O=C(NCc1ccco1)c1ccc(Cn2c(=O)c3ccccc3n(Cc3cccc(F)c3)c2=O)cc1`, for which the 50% inhibitory concentration (IC50) is 2.43 µM.

Regarding `CC(=O)c1cc2c(cc1N/C(=N/S(=O)(=O)c1ccc(C)cc1)c1ccc(Cl)cc1)OCO2`, the IC50 is > 40 µM (inactive).

In the case of `O=C(CSc1ncnc2c1oc1ccccc12)NCc1ccc(F)cc1`, the half-inhibitory concentration (IC50) is 1.26 µM.

The record behind these values is PubChem BioAssay AID1259321 (Sanford-Burnham Center for Chemical Genomics, 2017).
